{
  "source": "patent US10358469B2",
  "about": "“Methods and pharmaceutical compositions for the treatment of cancer” (INSERM (INSTITUT NATIONAL DE LA SANTÉ ET DE LA RECHERCHE …, priority 2014, dated 2019)",
  "key": {"[1]": {"test_system": "A549 non-small cell lung cancer xenograft", "experiment": "A549 lung adenocarcinoma subcutaneous xenograft in nude mice", "format": "in vivo", "details": "5 mg/kg i.p., 7 daily injections", "protocol": "A549 cells (1.25×10^6) were injected subcutaneously to six weeks old female nu/nu mice. Following transplantation (n=5-6 per model) tumor growth was assessed by measuring tumor size in two dimension using a Vernier caliper. Tumor volume was calculated using the formula [3.14×long axis×short axis×short axis]/6 (Kjonniksen et al., 1989). Treatment started after randomisation when tumor volumes had reached a size of approximately 100 mm^3 and consisted of intraperitoneal injection of AAC-11-LZ (377-399) or Antp-AAC-11-LZ (377-399) peptides (5 mg/kg) or vehicle (normal saline solution) each day for 7 consecutive days. Mice were weighted and the tumor size was measured by a caliper and recorded daily. Twenty eight days after beginning of the treatment mice were sacrificed. The tumors, kidney, lungs, heart, liver, pancreas and spleen were taken and fixed. Paraffin-embedded sections were prepared and stained with hematoxylin and eosin for histological analysis."}, "U2OS cells [2]": {"test_system": "U2OS cells", "experiment": "Matrigel invasion assay, U2OS cells", "format": "cell-based", "details": "7.5 μM, toward 10% FBS, 48 h, FIG. 10B", "protocol": "(§1) FIG. 10: Antp-AAC-11-LZ (377-399) peptide inhibits cell migration and invasion. (A) U2OS cells were added to the upper well of modified Boyden chamber (transwell) plates in serum-free medium containing 0.4% BSA with a vehicle or with either 7.5 μM of the Antp-AAC-11-LZ (377-399) peptide or the AAC-11-LZ (377-399) peptide and subjected to a transwell migration assay as described under Materials and methods. The cells were allowed to migrate toward 10% FBS for 24 h. Triplicate wells were used for each of three independent experiments. The results are expressed relative to the migration of the untreated cells (=100%). Column: Mean of three experiments. Bar: s.e. P-value was determined by Student's t-test (*P<0.01). (B) U2OS cells were seeded in a Matrigel-coated Boyden chamber in serum-free medium containing 0.4% BSA with a vehicle or with either 7.5 µM of the Antp-AAC-11-LZ (377-399) peptide or the AAC-11-LZ (377-399) peptide and subjected to a transwell migration assay as described under Materials and methods. The cells were allowed to migrate toward 10% FBS for 48 h. Triplicate wells were used for each of three independent experiments. The results are expressed relative to the migration of the untreated cells (=100%). Column: Mean of three experiments. Bar: s.e. P-value was determined by Student's t-test (*P<0.01) […]"}, "U2OS cells [3]": {"test_system": "U2OS cells", "experiment": "Transwell Boyden chamber migration assay, U2OS cells", "format": "cell-based", "details": "7.5 μM, serum-free medium with 0.4% BSA, toward 10% FBS, 24 h, FIG. 10A", "protocol": "as §1"}, "A549 cells": {"test_system": "A549 cells", "experiment": "Cell viability (MTT) of A549 cells under low serum / serum deprivation", "format": "cell-based", "protocol": "(A) Karpas 1106, SU-DHL-5, SeAx and HUT-78 cells were plated at a densities of 6×10^3 in 96 well plates (100 μL total volume per well) and treated for 24 hours in a 37° C. incubator (5% CO2) with increasing concentrations of the Antp-AAC-11-LZ (363-399). 20 μL MTS reagent was then added to each well and plates were incubated for an additional 4 hours. Absorbance was measured at 490 nm using a 96-well plate reader. The extent to which the Antp-AAC-11-LZ (363-399) peptide inhibited cell proliferation was calculated as a percentage of the absorbance in each well containing the Antp-AAC-11-LZ (363-399) peptide relative to wells containing no peptide (negative control). Each bar represents the mean±s.d. from at least three independent experiments. (B) Indicated cells were plated at a densities of 4.5×10^3 in 96 well plates (100 μL total volume per well) and allowed to attach overnight in a 37° C. incubator (5% CO2). Media was removed from cells and replaced with media containing Antp-AAC-11-LZ (363-399) peptide at various concentrations (100 μL total volume per well) peptide and the plates were incubated for 24 hours. The MTT assay was then completed and data analysis was performed as described herein. […] A549 cells were plated at a densities of 4.5×10^3 in 96 well plates (100 μL total volume per well) and allowed to attach overnight in a 37° C. incubator (5% CO2). Media was removed from cells and replaced with media containing the indicated peptides at 10 μM (100 μL total volume per well) and the plates were incubated for 24 hours. The MTT assay was then completed and data analysis was performed as described herein.\n(A) A549 cells were plated at a densities of 4.5×10^3 in 96 well plates (100 μL total volume per well) and allowed to attach overnight in a 37° C. incubator (5% CO2). Media was removed from cells and replaced with media containing the indicated peptides at various concentrations (100 μL total volume per well) peptide in the absence of serum and the plates were incubated for 24 hours. The MTT assay was then completed and data analysis was performed as described herein. (B) A549 or HaCat cells were plated at a densities of 4.5×10^3 in 96 well plates (100 μL total volume per well) and allowed to attach overnight in a 37° C. incubator (5% CO2). Media was removed from cells and replaced with media containing the indicated peptides at 10 μM (100 μL total volume per well) peptide in the absence of serum and the plates were incubated for 24 hours. The MTT assay was then completed and data analysis was performed as described herein.\nA549 cells were plated at a densities of 4.5×10^3 in 96 well plates (100 μL total volume per well) and allowed to attach overnight in a 37° C. incubator (5% CO2). Cells were left untreated or pre-treated with 100 μM Z-VAD-FMK for 2 h. […] The MTT assay was then completed and data analysis was performed as described herein.\n(A) A549 cells were plated at a densities of 4.5×10^3 in 96 well plates (100 μL total volume per well) and allowed to attach overnight in a 37° C. incubator (5% CO2). Media was removed from cells and replaced with media containing the indicated Antp-AAC-11-LZ peptides at various concentrations (100 μL total volume per well) peptide and the plates were incubated for 24 hours. The MTT assay was then completed and data analysis was performed as described herein. (B) A549 or HaCat cells were plated at a densities of 4.5×10^3 in 96 well plates (100 μL total volume per well) and allowed to attach overnight in a 37° C. incubator (5% CO2). Media was removed from cells and replaced with media containing the indicated peptides at 10 μM (100 μL total volume per well) peptide in the absence of serum and the plates were incubated for 24 hours. The MTT assay was then completed and data analysis was performed as described herein."}, "[4]": {"experiment": "Toxicity of peptide injection in nude mice", "details": "i.p. twice per week for 4 weeks", "method": "Nude mice were injected intraperitoneally twice a week for 4 weeks with normal saline solution or the indicated doses of Antp-AAC-11-LZ (363-399) peptide (n=3-4 mice per group) and were monitored daily for body weight (mean±s.e.m).\nNude mice were injected intraperitoneally twice a week for 4 weeks with normal saline solution or the indicated doses of Antp-AAC-11-LZ (377-399) peptide (n=3-4 mice per group) and were monitored daily for body weight (mean±s.e.m).\nWe first evaluated the toxicity of the Antp-AAC-11-LZ (363-399) peptide in nude mice that were injected intraperitoneally twice per week for 4 weeks with the Antp-AAC-11-LZ (363-399) peptide or normal saline solution (dose range: 0.8-4.8 mg peptide/kg body weight; n=3-4 mice per group).\nWe first evaluated the toxicity of the Antp-AAC-11-LZ (377-399) peptide in nude mice that were injected intraperitoneally twice per week for 4 weeks with the Antp-AAC-11-LZ (377-399) peptide or normal saline solution (dose range: 1-6 mg peptide/kg body weight; n=3-4 mice per group)."}, "[5]": {"test_system": "human triple-negative breast cancer xenograft PDX02", "experiment": "Triple-negative breast cancer patient-derived xenograft PDX02 in nude mice", "format": "in vivo", "details": "2.4 mg/kg i.p., 7 daily injections, p=0.01", "protocol": "(§2) Breast cancer fragments were obtained from patients at the time of surgery, with informed written patient consent. After imaging-guided human tumor biopsies had been performed, fragments of 30 to 60 mm^3 were subcutaneously grafted in 6-week-old NMRI-nude mice (Centre-Elevage-Janvier, France), under xylasin (10 mg/kg)/ketamin (100 mg/kg) anesthesia. Mice were maintained in specific pathogen-free animal housing (Institut Universitaire d'Hematologie) and received estrogen (17 mg/mL) diluted in drinking water. Xenografts were characterized and subsequently subcutaneously transplanted from mouse to mouse. […] Two human triple-negative breast cancer (HBC) xenografts models were used in our experiments (PDX01 and PDX02). […] Following transplantation (n=6 per model) tumor growth was assessed by measuring tumor size in two dimension using a Vernier caliper. Tumor volume was calculated using the formula [3.14×long axis×short axis×short axis]/6 (Kjonniksen et al., 1989). […] Mice were weighted and the tumor size was measured by a caliper and recorded daily. Fourteen days after beginning of the treatment mice were sacrificed. The tumors, kidney, lungs, heart, liver, pancreas and spleen were taken and fixed. Paraffin-embedded sections were prepared and stained with hematoxylin and eosin for histological analysis."}, "[6]": {"test_system": "human triple-negative breast cancer xenograft PDX01", "experiment": "Triple-negative breast cancer patient-derived xenograft PDX01 in nude mice", "format": "in vivo", "details": "2.4 mg/kg i.p., 7 daily injections, p=0.01", "protocol": "as §2"}},
  "data": [
    {"substance": "AAC-11-LZ (377-399): LQYFARGLQVYIRQLRLALQGKT (SEQ ID NO: 16) (Synthetic AAC-11-LZ (377-399))", "values": [
      {"measurement": "final mean tumor volume relative to control-treated mice", "setting": "[1]; p=0.01", "result": "less than 25%"},
      {"measurement": "cell invasion", "setting": "U2OS cells [2]", "result": "didn't show any effect"},
      {"measurement": "cell migration", "setting": "U2OS cells [3]", "result": "didn't show any effect"}
    ]},
    {"substance": "Ac-RQIKIWFKKQNRRMKWKKLQYFARGLQVYIRQLRLALQGKT-NH2 [Antp-AAC-11-LZ (377-399)]", "values": [
      {"measurement": "tumor size versus AAC-11-LZ (377-399) peptide or vehicle", "setting": "[1]; FIG. 11B", "result": "significantly smaller tumors"},
      {"measurement": "cellular viability", "setting": "A549 cells; 2 µM", "result": "5 % of control"},
      {"measurement": "cytotoxicity (decrease of A549 viability) relative to comparison peptide, dose-response", "setting": "A549 cells; various concentrations, low-serum conditions, 24 hours, FIG. 2A / 5A", "result": "markedly increased cytotoxicity potency compared to the parent peptide"},
      {"measurement": "mortality", "setting": "[4]; 1-6 mg peptide/kg body weight", "result": "No mice died"},
      {"measurement": "body weight difference between groups", "setting": "[4]; 1-6 mg peptide/kg body weight, FIG. 11A", "result": "no significant difference"},
      {"measurement": "toxicity to kidney, lungs, heart, liver, pancreas and spleen", "setting": "[4]; 1-6 mg peptide/kg, end of experiment", "result": "no obvious toxicity"},
      {"measurement": "cell invasion", "setting": "U2OS cells [2]", "result": "prevented invasion"},
      {"measurement": "cell migration", "setting": "U2OS cells [3]", "result": "substantially decreased"}
    ]},
    {"substance": "AAC-11-LZ (363-399): AKLNAEKLKDFKIRLQYFARGLQVYIRQLRLALQGKT (SEQ ID NO: 3) (Synthetic AAC-11-LZ (363-399))", "values": [
      {"measurement": "induction of cell death of A549 cells", "setting": "A549 cells; 10 μM, serum deprivation, 24 hours, FIG. 1C", "result": "neither the Penetratin peptide alone, the AAC-11-LZ (363-399) peptide without the Penetratin linkage nor the mutant peptide Antp-AAC-11-LZ (363-399) L/G did induce cell death"},
      {"measurement": "final mean tumor volume relative to control-treated mice", "setting": "[5]", "result": "less than 50%"},
      {"measurement": "final mean tumor volume relative to control-treated mice", "setting": "[6]", "result": "less than 35%"}
    ]}
  ]
}
